One molecule from patent US11572590B2, “Methods for evaluating tumor cell spheroids using 3D microfluidic cell culture device” (Dana-Farber Cancer Institute, Inc., priority 2017, dated 2023) can be followed below.

Holding throughout (test): SelectScreen Kinase Profiling, single point inhibition and IC50 for off-target kinases
Type in all cases: biochemical

The target of experiment [1] is off-target kinases (Homo sapiens, UniProt P08069). Particulars: IGF1R, ZLYTE, ATP Km app.
For experiment [2], the target named is off-target kinases (Homo sapiens, UniProt P09769). The note with it: FGR, ATP Km app, ZLYTE.
Chain of off-target kinases (Homo sapiens, UniProt P09769) (P09769 whole entry): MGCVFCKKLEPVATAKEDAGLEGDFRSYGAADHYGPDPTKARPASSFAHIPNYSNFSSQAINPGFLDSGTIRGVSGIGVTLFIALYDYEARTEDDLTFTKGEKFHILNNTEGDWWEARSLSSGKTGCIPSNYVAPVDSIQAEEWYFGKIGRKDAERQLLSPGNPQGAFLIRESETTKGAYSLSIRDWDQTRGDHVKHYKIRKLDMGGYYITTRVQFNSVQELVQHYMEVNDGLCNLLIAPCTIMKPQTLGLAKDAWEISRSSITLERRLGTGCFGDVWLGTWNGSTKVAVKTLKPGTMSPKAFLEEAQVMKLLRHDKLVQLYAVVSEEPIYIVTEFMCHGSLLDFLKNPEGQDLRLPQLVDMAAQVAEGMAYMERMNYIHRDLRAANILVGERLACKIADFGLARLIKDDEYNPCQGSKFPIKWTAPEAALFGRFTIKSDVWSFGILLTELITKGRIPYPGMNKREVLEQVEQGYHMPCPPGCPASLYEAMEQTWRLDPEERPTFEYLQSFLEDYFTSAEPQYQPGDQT
Experiment [3] has as its target T1, off-target kinases (Homo sapiens, UniProt Q08881).
T1 sequence (Q08881 1-620): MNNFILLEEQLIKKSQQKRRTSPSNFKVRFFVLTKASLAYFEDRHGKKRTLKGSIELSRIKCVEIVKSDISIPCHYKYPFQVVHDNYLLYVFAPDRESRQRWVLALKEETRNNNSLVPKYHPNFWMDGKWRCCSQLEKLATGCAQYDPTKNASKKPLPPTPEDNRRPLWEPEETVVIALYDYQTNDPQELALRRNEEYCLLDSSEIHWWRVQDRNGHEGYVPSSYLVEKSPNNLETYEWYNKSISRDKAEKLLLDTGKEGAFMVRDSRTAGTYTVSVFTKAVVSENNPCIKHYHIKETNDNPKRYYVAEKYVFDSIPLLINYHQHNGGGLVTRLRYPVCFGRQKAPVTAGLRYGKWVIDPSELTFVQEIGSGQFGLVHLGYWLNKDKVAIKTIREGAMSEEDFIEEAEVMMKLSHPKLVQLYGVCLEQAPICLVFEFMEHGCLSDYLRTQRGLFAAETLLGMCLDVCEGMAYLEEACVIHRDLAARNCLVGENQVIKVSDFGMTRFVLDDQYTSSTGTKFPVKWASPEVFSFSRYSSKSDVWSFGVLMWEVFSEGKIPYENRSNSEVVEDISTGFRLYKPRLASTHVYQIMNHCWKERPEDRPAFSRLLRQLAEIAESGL
The note with it: ITK, ZLYTE, ATP Km app.

For experiment [4], the target named is T2, off-target kinases (Homo sapiens, UniProt Q9UF33).
T2 sequence (Q9UF33 23-1036): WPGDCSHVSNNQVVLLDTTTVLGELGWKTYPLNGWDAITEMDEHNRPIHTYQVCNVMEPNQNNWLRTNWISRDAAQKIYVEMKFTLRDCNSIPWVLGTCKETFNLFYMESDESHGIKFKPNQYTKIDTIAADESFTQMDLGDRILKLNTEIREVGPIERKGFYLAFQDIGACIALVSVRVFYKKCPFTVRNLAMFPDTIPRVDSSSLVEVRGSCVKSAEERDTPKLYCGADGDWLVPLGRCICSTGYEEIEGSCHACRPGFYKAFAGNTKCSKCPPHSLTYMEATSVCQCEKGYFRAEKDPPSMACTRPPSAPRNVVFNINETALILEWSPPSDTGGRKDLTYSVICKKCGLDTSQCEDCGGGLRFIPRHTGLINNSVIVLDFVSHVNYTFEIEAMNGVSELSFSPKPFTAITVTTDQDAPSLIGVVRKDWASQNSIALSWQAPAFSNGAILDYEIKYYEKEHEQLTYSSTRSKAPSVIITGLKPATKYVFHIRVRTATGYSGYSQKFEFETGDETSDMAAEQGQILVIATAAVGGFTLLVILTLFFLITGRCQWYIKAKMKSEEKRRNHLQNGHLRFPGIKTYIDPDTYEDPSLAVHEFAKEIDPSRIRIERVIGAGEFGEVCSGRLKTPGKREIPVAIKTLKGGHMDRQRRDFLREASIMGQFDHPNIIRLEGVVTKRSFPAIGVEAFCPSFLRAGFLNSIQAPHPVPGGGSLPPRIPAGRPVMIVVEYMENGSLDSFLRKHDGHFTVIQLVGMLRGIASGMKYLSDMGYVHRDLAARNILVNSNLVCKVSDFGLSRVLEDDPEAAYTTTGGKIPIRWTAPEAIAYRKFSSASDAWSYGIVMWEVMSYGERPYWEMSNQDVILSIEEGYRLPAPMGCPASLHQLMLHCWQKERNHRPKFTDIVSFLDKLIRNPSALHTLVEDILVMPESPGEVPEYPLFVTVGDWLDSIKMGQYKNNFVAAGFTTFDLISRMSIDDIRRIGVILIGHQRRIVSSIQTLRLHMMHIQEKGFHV
The note with it: EPHA6, LanthaScreen Binding.

Read-outs that look alike come from different tables or passages of the source.

Chain of off-target kinases (Homo sapiens, UniProt P08069) (P08069 31-1367): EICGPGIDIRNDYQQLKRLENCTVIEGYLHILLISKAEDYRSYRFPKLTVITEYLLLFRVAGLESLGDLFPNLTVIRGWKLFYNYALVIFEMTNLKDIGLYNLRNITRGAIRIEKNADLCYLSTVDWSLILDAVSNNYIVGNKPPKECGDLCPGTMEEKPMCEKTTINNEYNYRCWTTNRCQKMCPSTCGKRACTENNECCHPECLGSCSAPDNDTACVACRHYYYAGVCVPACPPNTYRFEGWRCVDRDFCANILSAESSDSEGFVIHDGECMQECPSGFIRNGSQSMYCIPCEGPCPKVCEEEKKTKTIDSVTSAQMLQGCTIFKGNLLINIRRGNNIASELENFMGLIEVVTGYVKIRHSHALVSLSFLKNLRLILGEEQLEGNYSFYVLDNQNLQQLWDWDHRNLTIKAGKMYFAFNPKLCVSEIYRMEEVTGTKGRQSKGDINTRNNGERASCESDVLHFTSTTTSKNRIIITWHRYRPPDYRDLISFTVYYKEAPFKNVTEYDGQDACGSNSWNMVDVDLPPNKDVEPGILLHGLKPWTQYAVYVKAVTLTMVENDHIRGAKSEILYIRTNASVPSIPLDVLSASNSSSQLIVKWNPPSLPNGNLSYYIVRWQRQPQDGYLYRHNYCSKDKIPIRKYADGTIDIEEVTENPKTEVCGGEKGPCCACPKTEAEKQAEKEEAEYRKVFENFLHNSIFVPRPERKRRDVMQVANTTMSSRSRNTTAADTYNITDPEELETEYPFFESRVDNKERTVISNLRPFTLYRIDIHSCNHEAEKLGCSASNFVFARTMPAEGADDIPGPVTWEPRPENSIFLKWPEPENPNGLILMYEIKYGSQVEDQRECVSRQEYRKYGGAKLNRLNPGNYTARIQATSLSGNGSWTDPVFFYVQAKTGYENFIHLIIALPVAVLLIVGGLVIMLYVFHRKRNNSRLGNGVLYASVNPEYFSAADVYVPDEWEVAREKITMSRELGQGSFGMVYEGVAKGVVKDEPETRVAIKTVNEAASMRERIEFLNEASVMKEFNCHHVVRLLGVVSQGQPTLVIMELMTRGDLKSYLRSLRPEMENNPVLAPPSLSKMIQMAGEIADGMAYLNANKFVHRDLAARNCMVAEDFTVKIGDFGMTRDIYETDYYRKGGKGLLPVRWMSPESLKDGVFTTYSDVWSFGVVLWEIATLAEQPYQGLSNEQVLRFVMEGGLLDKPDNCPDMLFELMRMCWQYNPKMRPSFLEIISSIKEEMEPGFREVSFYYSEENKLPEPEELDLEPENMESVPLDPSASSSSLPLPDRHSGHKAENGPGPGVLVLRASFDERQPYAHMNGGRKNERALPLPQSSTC

Turning to `N#Cc1cc(-c2ncnc(Nc3ccc(N4CCN(C5COC5)CC4)cc3)n2)ccc1OC1CCOCC1` [Compound 1, 5-(4-((4-(4-(oxetan-3-yl)piperazin-1-yl)phenyl)amino)-1,3,5-triazin-2-yl)-2-((tetrahydro-2H-pyran-4-yl)oxy)benzonitrile], the inhibition in experiment [1] (read-out: % Inhibition 1) was found to be 1%; in experiment [1] (read-out: % Inhibition 2), 2%; in experiment [1] (read-out: % Inhibition Avg), 1%; in experiment [2] (read-out: % Inhibition 1), 53%; in experiment [2] (read-out: % Inhibition 2), 53%; in experiment [2] (read-out: % Inhibition Avg) it was 53%. Also, the inhibition in experiment [3] (read-out: % Inhibition 1) amounted to 37%; in experiment [3] (read-out: % Inhibition 2), 32%; in experiment [3] (read-out: % Inhibition Avg), 34%; in experiment [4] (read-out: % Inhibition 1) it was 9%; in experiment [4] (read-out: % Inhibition 2), 20%; in experiment [4] (read-out: % Inhibition Avg), 14%.
